In PMC2856764 (Human immunology, 2010):
Ends that are not written are not given here. Peptide text beside a SMILES is read from it.

Columns and labels:
[1] = test system: CD8+ enriched human donor PBMC; type: cell-based
[2] = target: HLA-A*0301 (Homo sapiens, UniProt P04439); experiment: biochemical; type: binding
[3] = target: HLA-A*6801 (Homo sapiens, UniProt P04439, A269V/D185E/E176V/E277Q/E87N/F33Y/G231S/I121M/I166T/I218V/L180W/L300P/L318F/N151K/P208A/P217A/Q86R/R169H/T345S); experiment: biochemical; type: binding
[4] = target: HLA-A*3101 (Homo sapiens, UniProt P04439, A270S/D185E/E176V/E277Q/F33T/G231S/G80R/H175R/I121M/I218V/I322F/K168Q/L300P/L318F/M331R/P217A/Q94H/R138Q/T323A/T345S/T97I/V358M); experiment: biochemical; type: binding
[5] = target: HLA-A*1101 (Homo sapiens, UniProt P04439, A114D/D185E/E176A/F33Y/L180Q/S129P/T187R); experiment: biochemical; type: binding
[6] = target: HLA-A*3301 (Homo sapiens, UniProt P04439, A270S/D185E/E176V/E277Q/E87N/F33T/G231S/H175R/I121M/I218V/I322F/K168Q/K210R/L300P/L318F/M331R/P217A/Q86R/Q94H/R138Q/T323A/T345S/T97I/V358M/Y195H); experiment: biochemical; type: binding
[7] = target: HLA-A*0206 (Homo sapiens, UniProt P04439, D140Y/D185E/D98H/E176V/E277Q/F33Y/G131W/G231S/I119V/I121R/I166T/I218V/L300P/L318F/N151K/N90K/P208A/P217A/Q86G/Q94H/R138H/R169H/T345S); experiment: biochemical; type: binding
[8] = target: HLA-A*0201 (Homo sapiens, UniProt P04439, D140Y/D185E/D98H/E176V/E277Q/G131W/G231S/I119V/I121R/I166T/I218V/L300P/L318F/N151K/N90K/P208A/P217A/Q86G/Q94H/R138H/R169H/T345S); experiment: biochemical; type: binding
[9] = target: HLA-A*6802 (Homo sapiens, UniProt P04439, A269V/D140Y/D185E/E176V/E277Q/E87N/F33Y/G231S/I121R/I166T/I218V/L180W/L300P/L318F/N151K/P208A/P217A/Q86R/R138H/R169H/S129P/T345S/V36M); experiment: biochemical; type: binding
[10] = target: HLA-A*0203 (Homo sapiens, UniProt P04439, A173T/D140Y/D185E/D98H/E277Q/G131W/G231S/I119V/I121R/I166T/I218V/L180W/L300P/L318F/N151K/N90K/P208A/P217A/Q86G/Q94H/R138H/R169H/T345S); experiment: biochemical; type: binding
[11] = target: HLA-A*0202 (Homo sapiens, UniProt P04439, D140Y/D185E/D98H/E176V/E277Q/G131W/G231S/I119L/I121R/I166T/I218V/L180W/L300P/L318F/N151K/N90K/P208A/P217A/Q67R/Q86G/Q94H/R138H/R169H/T345S); experiment: biochemical; type: binding
[12] = target: HLA-A*3002 (Homo sapiens, UniProt P04439, D101N/D140H/D185E/E176R/F33S/G80R/H175R/K168Q/Q94H/R138E/R41S/V100E); experiment: biochemical; type: binding
[13] = target: HLA-A*2402 (Homo sapiens, UniProt P04439, D101N/D140Y/D185E/E176V/E190D/F33S/G103R/G107R/I119L/I121M/I306V/K335N/L105A/L180Q/L300P/N151K/N90K/Q86E/Q94H/R106L/R138H/R89G/T104I/T345S/V100E/W191G/Y123F); experiment: biochemical; type: binding
[14] = target: HLA-A*2301 (Homo sapiens, UniProt P04439, D101N/D140Y/D185E/E176V/E190D/F33S/G103R/G107R/H175R/I119L/I121M/I306V/K168Q/K335N/L105A/L300P/N151K/N90K/P307H/Q86E/Q94H/R106L/R138H/R89G/T104I/T345S/V100E/W191G/Y123F); experiment: biochemical; type: binding
[15] = target: HLA-A*2902 (Homo sapiens, UniProt P04439, A270S/D101N/D185E/E176V/E277Q/E87Q/F33T/G231S/H175R/I121M/I218V/I322F/K168Q/L300P/L318F/M331R/P208A/P217A/Q86L/T323A/T345S/V100A/V358M); experiment: biochemical; type: binding
[16] = target: HLA-B*4501 (Homo sapiens, UniProt P01889, A329T/A65T/A93T/A95T/C349S/D138N/D201E/D98Y/E176V/E187L/E204Q/E69K/H137Y/K202T/L119W/N87E/Q56L/Q94N/R155S/R180D/S121R/S35A/S48T/V127L/V306I/V36M/W191S/Y140L/Y33H/Y91S); experiment: biochemical; type: binding
[17] = target: HLA-B*4001 (Homo sapiens, UniProt P01889, A65T/A93T/A95T/D138N/D98Y/E176V/E69K/N87E/Q56L/Q94N/R180L/S121R/S35A/S48T/T167S/V36M/W171L/Y33H/Y91S); experiment: biochemical; type: binding
[18] = target: HLA-B*4002 (Homo sapiens, UniProt P01889, A65T/A93T/A95T/D138N/D201E/D98Y/E176V/E204Q/E69K/K202T/N87E/Q56L/Q94N/R180L/S48T/Y33H/Y91S); experiment: biochemical; type: binding
[19] = target: HLA-B*4402 (Homo sapiens, UniProt P01889, A223V/A65T/A93T/A95T/D201E/D98Y/E176V/E187L/E204Q/E69K/G107R/H137Y/K202T/L105A/L119I/N104T/N87E/Q56L/Q94N/R106L/R155S/R180D/S101N/S121R/S35A/S48T/T118I/V36M/W191S/Y140D/Y91S); experiment: biochemical; type: binding
[20] = target: HLA-B*1801 (Homo sapiens, UniProt P01889, A329T/A93T/A95T/C349S/D201E/D54G/D98Y/E176V/E187T/E204Q/E69T/K202T/Q94N/R155S/R180L/S121R/V306I/Y140S/Y195H/Y33H/Y91S); experiment: biochemical; type: binding
[21] = target: HLA-B*4403 (Homo sapiens, UniProt P01889, A223V/A65T/A93T/A95T/D201E/D98Y/E176V/E187L/E204Q/E69K/G107R/H137Y/K202T/L105A/L119I/N104T/N87E/Q56L/Q94N/R106L/R155S/R180L/S101N/S121R/S35A/S48T/T118I/V36M/W191S/Y140D/Y91S); experiment: biochemical; type: binding

CC(C)C[C@H](NC(=O)[C@H](CS)NC(=O)[C@H](CO)NC(=O)[C@@H](N)CCCCN)C(=O)N1CCC[C@H]1C(=O)N[C@@H](C)C(=O)N[C@@H](CS)C(=O)N[C@H](C(=O)N[C@@H](Cc1ccc(O)cc1)C(=O)O)C(C)C [NP.273] (H-KSCLPACVY-OH; N-terminus and C-terminus assumed)
IFN-γ responses [1]: 590; 1200; 300 SFC/10^6 CD8^+ cells
peptide-specific recall response [1]: Significant

CC(C)C[C@H](NC(=O)CNC(=O)[C@H](Cc1ccc(O)cc1)NC(=O)[C@@H](NC(=O)[C@H](CS)NC(=O)[C@H](C)NC(=O)[C@@H]1CCCN1C(=O)[C@H](CC(C)C)NC(=O)[C@@H](N)CS)C(C)C)C(=O)O [NP.275] (H-CLPACVYGL-OH; N-terminus and C-terminus assumed)
IFN-γ responses [1]: 350; 986; 2200 SFC/10^6 CD8^+ cells
peptide-specific recall response [1]: responses induced

ASCMGLIYNR [M1.125]
IC50 [2]: 816 nM
IC50 [3]: 391 nM
IC50 [4]: 7 nM
IC50 [5]: 32 nM
IC50 [6]: 445 nM

FQGRGVFEL [NP.458]
IC50 [7]: 7 nM
IC50 [8]: 143 nM
IC50 [9]: > 10000 nM
IC50 [10]: 307 nM
IC50 [11]: 7 nM

FQVDCFLWHV [NS1.9]
IC50 [7]: 1 nM
IC50 [8]: 4 nM
IC50 [9]: 219 nM
IC50 [10]: 3 nM
IC50 [11]: 4 nM

FYIQMCTEL [NP.39]
IC50 [12]: > 10000 nM
IC50 [13]: 24 nM
IC50 [14]: 8 nM
IC50 [15]: 1560 nM

FYRYGFVANF [PB1.496]
IC50 [12]: > 10000 nM
IC50 [13]: 17 nM
IC50 [14]: 13 nM
IC50 [15]: 812 nM

GERQNATEI [NP.17]
IC50 [16]: 304 nM
IC50 [17]: 199 nM
IC50 [18]: 53 nM
IC50 [19]: > 10000 nM
IC50 [20]: > 10000 nM
IC50 [21]: > 10000 nM

GLFGAIAGFI [HA.345]
IC50 [7]: 2540 nM
IC50 [8]: 41 nM
IC50 [9]: 1530 nM
IC50 [10]: 1 nM
IC50 [11]: 0.4 nM

GTFEFTSFFY [PB1.488]
IC50 [2]: 16 nM
IC50 [3]: 100 nM
IC50 [4]: 242 nM
IC50 [5]: 1 nM
IC50 [6]: 5410 nM

KFLPDLYDYK [PA.104]
IC50 [2]: 255 nM
IC50 [3]: 507 nM
IC50 [4]: 2410 nM
IC50 [5]: 22 nM
IC50 [6]: > 10000 nM
